Assay [1] concerns the target β5 (chymotrypsin-like activity) of 20S proteasome (Homo sapiens, UniProt P28074). The assay is described as follows: 20S proteasome inhibitory activity, AMC fluorescent substrate Suc-LLVY-AMC.
For assay [2], the target named is T1, β1 (caspase-like activity) of 20S proteasome (Homo sapiens, UniProt P28072).
T1 construct: purchased Bioscience (20S Proteasome StressXpress Assay Kit Gold)
Nature of the assay: 20S proteasome inhibitory activity, AMC fluorescent substrate Z-LLE-AMC. The format is biochemical.

The target of assay [3] is β2 (trypsin-like activity) of 20S proteasome (Homo sapiens, UniProt Q99436). The assay is described as follows: 20S proteasome inhibitory activity, AMC fluorescent substrate Bz-VGR-AMC.
Assay [4] addresses T2, E. coli DHFR (Escherichia coli, UniProt P0ABQ4).
T2 construct: expressed in transfected cells; host or cells: HeLa cells, transient transfection with pMIR DsRed-IRES-ecDHFR-HA-GFP
Nature of the assay: Thermal shift assay of affinity with forcedly expressed target protein in HeLa cells. The note with it: bortezomib alone. The format is binding.

Molecules are shown by their SMILES. pIC50: −log10 of the molar value. Non-standard residues stand in square brackets, D forms with d. Residues, ends and D or L forms follow the SMILES beside them. Nle = CCCC[C@H](N)C(=O)O

A word on the pIC50: it is −log10 of the IC50, conventionally taken in molar units. The low end stands for a large IC50, the high end for a small IC50. On to `CCCC[C@@H](C=O)NC(=O)[C@H](CC(C)C)NC(=O)[C@H](CC(C)C)NC(C)=O` [ALLN] (Ac-Leu-Leu-[Nle]-aldehyde), for which the pIC50 in assay [1] is 5.94; in assay [2] (20S proteasome 0.1 μg, 30 min preincubation, substrate 100 μM, 1 hour) it was 4.91; in assay [3], 5.28. Also, in assay [2] (FIGS. 4A, 7A, compared with the original proteasome inhibitor alone), the “inhibitory activity against β1” value is given as “not significantly inhibited”.

`CC(C)C[C@H](NC(=O)CNC(=O)c1cc(Cl)ccc1Cl)B(O)O` [MLN2238] showed a negative-log IC50 (pIC50) in assay [3] of 5.19.

For `CC(C)C[C@H](NC(=O)[C@H](Cc1ccccc1)NC(=O)c1cnccn1)B(O)O` [Bortezomib], the “interaction with E. coli DHFR” value in assay [4] was “did not interact with E. coli DHFR”.

Source of the values: US10976306B2, “Protein degradation inducing tag and usage thereof” (Tokyo University of Science Foundation, priority 2015, dated 2021).
